# Test system: 843782-103-R-J1-PDC complex spheroid viability
# Assay: Anticancer human tumor 843782-103-R-J1-PDC patient-derived lung adenocarcinoma cell line growth inhibition [RAS]
# Settings: for IC50: curve of first compound; for viability, T/C: stronger effect = lower value
# In short: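 Tumour cells grown as complex spheroids with HUVEC endothelial cells and mesenchymal stem cells, treated with RAS pathway inhibitor combinations. Each agent spans half-log steps from near clinical Cmax, or 10 microM where Cmax is unknown.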
# [1] = second compound 0.000949 µM, first compound 0.0316 µM
# [2] = second compound 0.000949 µM, first compound 0.1 µM
# [3] = second compound 0.000949 µM, first compound 0.316 µM
# [4] = second compound 0.000949 µM, first compound 1 µM
# [5] = second compound 0.000949 µM, first compound 3.16 µM
# [6] = second compound 0.000949 µM, first compound 10 µM
# [7] = second compound 0.003 µM, first compound 0.0316 µM
# [8] = second compound 0.003 µM, first compound 0.1 µM
# [9] = second compound 0.003 µM, first compound 0.316 µM
# [10] = second compound 0.003 µM, first compound 1 µM
# [11] = second compound 0.003 µM, first compound 3.16 µM
# [12] = second compound 0.003 µM, first compound 10 µM
# [13] = second compound 0.00949 µM, first compound 0.0316 µM
# [14] = second compound 0.00949 µM, first compound 0.1 µM
# [15] = second compound 0.00949 µM, first compound 0.316 µM
# [16] = second compound 0.00949 µM, first compound 1 µM
# [17] = second compound 0.00949 µM, first compound 3.16 µM
# [18] = second compound 0.00949 µM, first compound 10 µM
# [19] = second compound 0.03 µM, first compound 0.0316 µM
# [20] = second compound 0.03 µM, first compound 0.1 µM
# [21] = second compound 0.03 µM, first compound 0.316 µM
# [22] = second compound 0.03 µM, first compound 1 µM
# [23] = second compound 0.03 µM, first compound 3.16 µM
# [24] = second compound 0.03 µM, first compound 10 µM
# [25] = second compound 0.0949 µM, first compound 0.0316 µM
# [26] = second compound 0.0949 µM, first compound 0.1 µM
# [27] = second compound 0.0949 µM, first compound 0.316 µM
# [28] = second compound 0.0949 µM, first compound 1 µM
# [29] = second compound 0.0949 µM, first compound 3.16 µM
# [30] = second compound 0.0949 µM, first compound 10 µM
# [31] = second compound 0.3 µM, first compound 0.0316 µM
# [32] = second compound 0.3 µM, first compound 0.1 µM
# [33] = second compound 0.3 µM, first compound 0.316 µM
# [34] = second compound 0.3 µM, first compound 1 µM
# [35] = second compound 0.3 µM, first compound 3.16 µM
# [36] = second compound 0.3 µM, first compound 10 µM
# 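Note: viability read after seven days of compound exposure.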
compound,measurement,setting,value
C[C@@H](NC(=O)c1ncnc(N)c1Cl)c1ncc(C(=O)Nc2cc(C(F)(F)F)c(Cl)cn2)s1 + CCn1c(-c2cc(N3CCN(C)CC3)cnc2C(C)OC)c2c3cc(ccc31)-c1csc(n1)CC(NC(=O)C1CC1C)C(=O)N1CCCC(N1)C(=O)OCC(C)(C)C2,IC50,second compound 0.000949 µM,> 10000 nM
same,IC50,second compound 0.003 µM,> 10000 nM
same,IC50,second compound 0.00949 µM,< 31.6 nM
same,IC50,second compound 0.03 µM,< 31.6 nM
same,IC50,second compound 0.0949 µM,< 31.6 nM
same,IC50,second compound 0.3 µM,< 31.6 nM
same,"viability, T/C",[1],84.4%
same,"viability, T/C",[2],78.1%
same,"viability, T/C",[3],85.8%
same,"viability, T/C",[4],79.6%
same,"viability, T/C",[5],89.8%
same,"viability, T/C",[6],84.3%
same,"viability, T/C",[7],68.9%
same,"viability, T/C",[8],70%
same,"viability, T/C",[9],67.5%
same,"viability, T/C",[10],68.6%
same,"viability, T/C",[11],74.6%
same,"viability, T/C",[12],64.7%
same,"viability, T/C",[13],41%
same,"viability, T/C",[14],51.6%
same,"viability, T/C",[15],48.4%
same,"viability, T/C",[16],44%
same,"viability, T/C",[17],53.6%
same,"viability, T/C",[18],48.2%
same,"viability, T/C",[19],22.9%
same,"viability, T/C",[20],26.2%
same,"viability, T/C",[21],28.8%
same,"viability, T/C",[22],32.5%
same,"viability, T/C",[23],34.7%
same,"viability, T/C",[24],33.4%
same,"viability, T/C",[25],19.8%
same,"viability, T/C",[26],18.8%
same,"viability, T/C",[27],19.8%
same,"viability, T/C",[28],21.6%
same,"viability, T/C",[29],24.3%
same,"viability, T/C",[30],23.7%
same,"viability, T/C",[31],15.4%
same,"viability, T/C",[32],15.6%
same,"viability, T/C",[33],19.1%
same,"viability, T/C",[34],17.5%
same,"viability, T/C",[35],19.6%
same,"viability, T/C",[36],18.6%
CCN1CCN(Cc2ccc(Nc3ncc(F)c(-c4cc(F)c5nc(C)n(C(C)C)c5c4)n3)nc2)CC1 + C#Cc1c(F)ccc2cc(O)cc(-c3ncc4c(N5CC6CCC(C5)N6)nc(OCC56CCCN5CC(F)C6)nc4c3F)c12,IC50,second compound 0.0316 µM,> 1000 nM
same,IC50,second compound 0.1 µM,> 1000 nM
same,IC50,second compound 0.316 µM,> 1000 nM
same,IC50,second compound 1 µM,905 nM
same,IC50,second compound 3.16 µM,415 nM
same,IC50,second compound 10 µM,76.7 nM
same,"viability, T/C","second compound 0.0316 µM, first compound 0.00316 µM",108%
same,"viability, T/C","second compound 0.0316 µM, first compound 0.01 µM",93%
same,"viability, T/C","second compound 0.0316 µM, first compound 0.0316 µM",101%
same,"viability, T/C","second compound 0.0316 µM, first compound 0.1 µM",105%
same,"viability, T/C","second compound 0.0316 µM, first compound 0.316 µM",101%
same,"viability, T/C","second compound 0.0316 µM, first compound 1 µM",71%
same,"viability, T/C","second compound 0.1 µM, first compound 0.00316 µM",107%
same,"viability, T/C","second compound 0.1 µM, first compound 0.01 µM",104%
same,"viability, T/C","second compound 0.1 µM, first compound 0.0316 µM",93.3%
same,"viability, T/C","second compound 0.1 µM, first compound 0.1 µM",97.3%
same,"viability, T/C","second compound 0.1 µM, first compound 0.316 µM",97.1%
same,"viability, T/C","second compound 0.1 µM, first compound 1 µM",75%
same,"viability, T/C","second compound 0.316 µM, first compound 0.00316 µM",107%
same,"viability, T/C","second compound 0.316 µM, first compound 0.01 µM",101%
same,"viability, T/C","second compound 0.316 µM, first compound 0.0316 µM",103%
same,"viability, T/C","second compound 0.316 µM, first compound 0.1 µM",99.3%
same,"viability, T/C","second compound 0.316 µM, first compound 0.316 µM",86.7%
same,"viability, T/C","second compound 0.316 µM, first compound 1 µM",65%
same,"viability, T/C","second compound 1 µM, first compound 0.00316 µM",105%
same,"viability, T/C","second compound 1 µM, first compound 0.01 µM",92.6%
same,"viability, T/C","second compound 1 µM, first compound 0.0316 µM",93.9%
same,"viability, T/C","second compound 1 µM, first compound 0.1 µM",89.5%
same,"viability, T/C","second compound 1 µM, first compound 0.316 µM",75.9%
same,"viability, T/C","second compound 1 µM, first compound 1 µM",46.9%
same,"viability, T/C","second compound 3.16 µM, first compound 0.00316 µM",87.2%
same,"viability, T/C","second compound 3.16 µM, first compound 0.01 µM",88.6%
same,"viability, T/C","second compound 3.16 µM, first compound 0.0316 µM",79.5%
same,"viability, T/C","second compound 3.16 µM, first compound 0.1 µM",69.4%
same,"viability, T/C","second compound 3.16 µM, first compound 0.316 µM",53.1%
same,"viability, T/C","second compound 3.16 µM, first compound 1 µM",40%
same,"viability, T/C","second compound 10 µM, first compound 0.00316 µM",67%
same,"viability, T/C","second compound 10 µM, first compound 0.01 µM",60.9%
same,"viability, T/C","second compound 10 µM, first compound 0.0316 µM",57.6%
same,"viability, T/C","second compound 10 µM, first compound 0.1 µM",46.2%
same,"viability, T/C","second compound 10 µM, first compound 0.316 µM",40.6%
same,"viability, T/C","second compound 10 µM, first compound 1 µM",26.6%
CC1(O)CCCC1n1c(=O)c(C(F)F)cc2cnc(NC3CCN(S(C)(=O)=O)CC3)nc21 (stereo unspecified) + CCn1c(-c2cccnc2C(C)OC)c2c3cc(ccc31)N1CCOC(CC(NC(=O)C(C(C)C)N(C)C(=O)C3(F)CCN(C(=O)C#CC(C)(C)N(C)C)CC3)C(=O)N3CCCC(N3)C(=O)OCC(C)(C)C2)C1,IC50,second compound 0.000949 µM,59 nM
same,IC50,second compound 0.003 µM,77.4 nM
same,IC50,second compound 0.00949 µM,71.8 nM
same,IC50,second compound 0.03 µM,62.4 nM
same,IC50,second compound 0.0949 µM,73.9 nM
same,IC50,second compound 0.3 µM,59.5 nM
same,"viability, T/C",[1],60.3%
same,"viability, T/C",[2],41.9%
same,"viability, T/C",[3],26.5%
same,"viability, T/C",[4],18.6%
same,"viability, T/C",[5],19%
same,"viability, T/C",[6],2.09%
same,"viability, T/C",[7],64.3%
same,"viability, T/C",[8],48.8%
same,"viability, T/C",[9],24.5%
same,"viability, T/C",[10],22.2%
same,"viability, T/C",[11],14.9%
same,"viability, T/C",[12],2.67%
same,"viability, T/C",[13],61.6%
same,"viability, T/C",[14],43.5%
same,"viability, T/C",[15],32.4%
same,"viability, T/C",[16],23.2%
same,"viability, T/C",[17],15.3%
same,"viability, T/C",[18],2.34%
same,"viability, T/C",[19],58.2%
same,"viability, T/C",[20],45.9%
same,"viability, T/C",[21],28.3%
same,"viability, T/C",[22],24.2%
same,"viability, T/C",[23],15.5%
same,"viability, T/C",[24],4.11%
same,"viability, T/C",[25],60.5%
same,"viability, T/C",[26],50.1%
same,"viability, T/C",[27],25.9%
same,"viability, T/C",[28],24.4%
same,"viability, T/C",[29],16.4%
same,"viability, T/C",[30],2.24%
same,"viability, T/C",[31],60.5%
same,"viability, T/C",[32],43.2%
same,"viability, T/C",[33],21.9%
same,"viability, T/C",[34],23%
same,"viability, T/C",[35],19.4%
same,"viability, T/C",[36],1.76%
